Literature values, collected in patent US20080167327A1, “HYDRATES OF ERLOTINIB HYDROCHLORIDE” (priority 2006, published 2008).
Counter-ions that a name gives are not always drawn.

Tests used:
[1] = compared with Form A; disclosed in WO 01/34574
[2] = compared with Form B; disclosed in WO 2004/072049

| Structure (SMILES) | thermodynamic stability [1] | solubility [2] |
| --- | --- | --- |
| C#Cc1cccc(Nc2ncnc3cc(OCCOC)c(OCCOC)cc23)c1 [Form B, erlotinib hydrochloride] | thermodynamically more stable than Form A |  |
| C#Cc1cccc(Nc2ncnc3cc(OCCOC)c(OCCOC)cc23)c1 [Form E, erlotinib hydrochloride] |  | higher solubility |
